We go through one compound from PMC5281649 (European Journal of Nuclear Medicine and Molecular Imaging, 2016).

For one series, the target named is T1, brain MAO-B enzyme (Homo sapiens, UniProt P27338).
T1 sequence (P27338 1-520): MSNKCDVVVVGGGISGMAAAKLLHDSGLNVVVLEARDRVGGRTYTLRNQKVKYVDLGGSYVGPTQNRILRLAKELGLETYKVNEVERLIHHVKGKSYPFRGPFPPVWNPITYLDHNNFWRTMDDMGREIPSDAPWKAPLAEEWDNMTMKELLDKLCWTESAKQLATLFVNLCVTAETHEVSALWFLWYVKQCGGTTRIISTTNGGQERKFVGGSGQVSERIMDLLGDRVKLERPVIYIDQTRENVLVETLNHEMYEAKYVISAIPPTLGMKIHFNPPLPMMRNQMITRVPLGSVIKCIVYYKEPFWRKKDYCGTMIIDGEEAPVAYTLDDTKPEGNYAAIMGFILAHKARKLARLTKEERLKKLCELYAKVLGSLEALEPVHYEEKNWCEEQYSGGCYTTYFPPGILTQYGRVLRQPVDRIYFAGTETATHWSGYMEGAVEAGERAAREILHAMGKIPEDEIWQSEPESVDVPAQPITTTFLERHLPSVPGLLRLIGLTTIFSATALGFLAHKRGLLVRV
Nature of the series: Plasma concentration–MAO-B enzyme inhibition relationship (simple Emax model). The class given is in vivo. How it is done:
The PK/PD analysis was performed using Phoenix WinNonlin software version 6.2 (Pharsight Corporation, Mountain View, CA, USA).

Another series has as its target MAO-B enzyme. Set-up: method as in doi:10.1016/j.jalz.2013.05.1757. The settings on record: MAO enzymatic activity and displacement assays; read-out: IC50 from in vitro affinity assays of the MAO-B enzyme; cited from earlier work.
On the set-up of series [1]: method as in PMID 22451094. The settings on record: phase 1 and 2 studies, approximately 1040 subjects; cited from earlier work.

SMILES strings stand for the structures. Where two headings read alike, the source gives them in different places.

In the case of `CC(=O)N[C@H]1CC(=O)N(c2ccc(OCc3cccc(F)c3)cc2)C1` [sembragiline], the “Emax (maximum MAO-B occupancy)” value on brain MAO-B enzyme (AD patients, frontal cortex, steady state, pre-scan plasma concentration) is 81.1 (CV%: 3.2); at brain MAO-B enzyme (AD patients, hippocampus, steady state, pre-scan plasma concentration) it was 85.9 (CV%: 4.1); at brain MAO-B enzyme (AD patients, striatum, steady state, pre-scan plasma concentration) it was 87.8 (CV%: 1.8); on brain MAO-B enzyme (EC subjects, frontal cortex, steady state, pre-scan plasma concentration) it was 80.1 (CV%: 8.9); on brain MAO-B enzyme (EC subjects, hippocampus, steady state, pre-scan plasma concentration), 89.1 (CV%: 9.6); at brain MAO-B enzyme (EC subjects, striatum, steady state, pre-scan plasma concentration) it was 88.8 (CV%: 7.5). In addition, the EC50 on brain MAO-B enzyme (AD patients, frontal cortex, steady state, pre-scan plasma concentration, read-out: EC50 (plasma concentration at half-maximal occupancy) (converted)) is 3.1 nM; on brain MAO-B enzyme (AD patients, hippocampus, steady state, pre-scan plasma concentration, read-out: EC50 (plasma concentration at half-maximal occupancy) (converted)), 3.77 nM; at brain MAO-B enzyme (AD patients, striatum, steady state, pre-scan plasma concentration, read-out: EC50 (plasma concentration at half-maximal occupancy) (converted)) it was 3.24 nM; on brain MAO-B enzyme (EC subjects, frontal cortex, steady state, pre-scan plasma concentration, read-out: EC50 (plasma concentration at half-maximal occupancy) (converted)) it was 4.59 nM; on brain MAO-B enzyme (EC subjects, hippocampus, steady state, pre-scan plasma concentration, read-out: EC50 (plasma concentration at half-maximal occupancy) (converted)), 5.99 nM; on brain MAO-B enzyme (EC subjects, striatum, steady state, pre-scan plasma concentration, read-out: EC50 (plasma concentration at half-maximal occupancy) (converted)), 4.88 nM. Besides, the EC50 at brain MAO-B enzyme (across ROIs and for both populations, steady state, read-out: Estimated EC50 (plasma concentration)) is 2.92 to 5.84 nM. Besides, the “Estimated Emax of MAO-B inhibition” value on brain MAO-B enzyme (across ROIs and for both populations, steady state) is listed as 80–89%. At brain MAO-B enzyme (across ROIs and for both populations, steady state, read-out: Estimated Emax of MAO-B inhibition), the Emax (commonly the greatest response seen or fitted, relative to the assay's reference) is 80 to 90%. Also, the “Sembragiline concentration needed for near-complete MAO-B inhibition in the brain” value on brain MAO-B enzyme (regardless of the population) is listed as “around 20 ng/mL”. Further, the “Plasma concentration at which the plateau in MAO-B inhibition occurred” value on brain MAO-B enzyme (steady state, AD patients and EC subjects) was 20 to 50 ng/mL. For the same compound, the IC50 – broadly, the point on the concentration scale where inhibition reaches its midpoint – at MAO-B enzyme was 5 to 6 nM. The Safety and tolerability result in series [1] is “safe and well tolerated”.
